From patent US8071314B2 (priority 2001, dated 2011)
Where “and” joins values, the source holds several entries; their conditions need not be identical. Equal values may be shown once. Read-outs that look alike come from different tables or passages of the source.

Tested on: N-methyl-D-aspartate (NMDA) receptor
Type: cell-based, mouse

In the case of `NC(CCCP(=O)(O)O)C(=O)O` [D-APV, 2-amino-5-phosphonovalerate], the “LTP in the presence of the NMDA antagonist” value (50 μM D-APV, all genotypes, hippocampal slices, 100 Hz tetanus, 100 μM picrotoxin in bath) is reported as “completely abolished”, the “Posttetanus fEPSP slopes, averaged over 180 min (relative to baseline)” value (n=3) is reported as 107±14% and 97±9% and the “Posttetanus fEPSP slopes, averaged over 180 min (relative to baseline)” value (n=5) is reported as 106±10%.
